Test results from PubChem BioAssay AID248 (DTP/NCI, 2004).
“And” between values parts separate entries of the source, which are not always exact repeats. Identical values can stand only once. Inconclusive results and toxic doses are left out. Rule as the data show it: active = T/C of 150% or more; inactive = T/C below 125%.

System: L1210 leukemia ip in BDF1 mice, survival T/C
Experiment: NCI In Vivo Anticancer Drug Screen. Data for tumor model L1210 Leukemia (intraperitoneal) in B6D2F1 (BDF1) mice
Settings: endpoint: mean survival time, higher = longer survival
How it was run: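 Tumor was transplanted into mice, which were then dosed with test compound or vehicle alone. Survival was recorded for each group, and the treated figure was expressed relative to the control figure.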

[1] = dose: 100.0 mg/kg/injection, schedule: Q01DX009 (ip), vehicle: saline with Tween-80
[2] = dose: 200.0 mg/kg/injection, schedule: Q01DX009 (ip), vehicle: saline with Tween-80
[3] = dose: 100.0 mg/kg/injection, schedule: Q01DX001 (ip), vehicle: saline with Tween-80
[4] = dose: 200.0 mg/kg/injection, schedule: Q01DX001 (ip), vehicle: saline with Tween-80
[5] = dose: 100.0 mg/kg/injection, schedule: Q04DX003 (ip), vehicle: saline with Tween-80
[6] = dose: 200.0 mg/kg/injection, schedule: Q04DX003 (ip), vehicle: saline with Tween-80
[7] = dose: 400.0 mg/kg/injection, schedule: Q01DX009 (ip), vehicle: saline with Tween-80
[8] = dose: 400.0 mg/kg/injection, schedule: Q04DX003 (ip), vehicle: saline with Tween-80
[9] = dose: 100.0 mg/kg/injection, schedule: Q04DX002 (ip), vehicle: Klucel (hydroxypropylcellulose) (HPC)
[10] = dose: 200.0 mg/kg/injection, schedule: Q04DX002 (ip), vehicle: Klucel (hydroxypropylcellulose) (HPC)
[11] = dose: 400.0 mg/kg/injection, schedule: Q04DX002 (ip), vehicle: Klucel (hydroxypropylcellulose) (HPC)
[12] = dose: 75.0 mg/kg/injection, schedule: Q01DX001 (ip), vehicle: other
[13] = dose: 150.0 mg/kg/injection, schedule: Q01DX001 (ip), vehicle: other
[14] = dose: 100.0 mg/kg/injection, schedule: Q01DX001 (ip), vehicle: saline
[15] = dose: 200.0 mg/kg/injection, schedule: Q01DX001 (ip), vehicle: saline
[16] = dose: 400.0 mg/kg/injection, schedule: Q01DX001 (ip), vehicle: saline

Measured: T/C

O=C1OC(C(O)CO)C(=O)C1=O (stereo unspecified)
inactive: dose: 50.0 mg/kg/injection, schedule: Q01DX009 (ip), vehicle: saline with Tween-80 97 % of control | dose: 100.0 mg/kg/injection, schedule: Q01DX001 (ip), vehicle: water 102 % of control | [1] 97 % of control | dose: 100.0 mg/kg/injection, schedule: Q01DX009 (ip), vehicle: water 105 % of control | dose: 100.0 mg/kg/injection, schedule: Q04DX003 (ip), vehicle: water 104 % of control | dose: 200.0 mg/kg/injection, schedule: Q01DX001 (ip), vehicle: water 107 % of control | [2] 101 % of control | dose: 200.0 mg/kg/injection, schedule: Q01DX009 (ip), vehicle: water 106 % of control | dose: 200.0 mg/kg/injection, schedule: Q04DX003 (ip), vehicle: water 109 % of control | dose: 400.0 mg/kg/injection, schedule: Q01DX001 (ip), vehicle: water 107 % of control | dose: 400.0 mg/kg/injection, schedule: Q01DX009 (ip), vehicle: water 116 % of control | dose: 400.0 mg/kg/injection, schedule: Q04DX003 (ip), vehicle: water 115 % of control | dose: 800.0 mg/kg/injection, schedule: Q01DX001 (ip), vehicle: water 102 % of control | dose: 800.0 mg/kg/injection, schedule: Q01DX009 (ip), vehicle: water 111 % of control | dose: 800.0 mg/kg/injection, schedule: Q04DX003 (ip), vehicle: water 121 % of control

NNC(=O)c1ccccc1CO
inactive: [3] 100 % of control | [4] 103 % of control

COC(=O)c1ccccc1NC(=O)c1cc(C(=O)O)c(C(=O)Nc2ccccc2C(=O)OC)cc1C(=O)O
inactive: [1] 93 % of control and 107 % of control | dose: 100.0 mg/kg/injection, schedule: Q04DX002 (ip), vehicle: saline with Tween-80 100 % of control and 103 % of control | [5] 102 % of control | [2] 97 % of control and 113 % of control | dose: 200.0 mg/kg/injection, schedule: Q04DX002 (ip), vehicle: saline with Tween-80 106 % of control and 109 % of control | [6] 100 % of control | [7] 97 % of control and 92 % of control | dose: 400.0 mg/kg/injection, schedule: Q04DX002 (ip), vehicle: saline with Tween-80 96 % of control and 92 % of control | [8] 102 % of control

CC(=O)OC1CCCC2C(=O)c3c(c(O)c4ccccc4c3O)C(=O)C12 (stereo unspecified)
inactive: dose: 100.0 mg/kg/injection, schedule: Q01DX009 (ip), vehicle: saline 98 % of control | dose: 100.0 mg/kg/injection, schedule: Q04DX003 (ip), vehicle: saline 96 % of control | dose: 200.0 mg/kg/injection, schedule: Q01DX009 (ip), vehicle: saline 98 % of control | dose: 200.0 mg/kg/injection, schedule: Q04DX003 (ip), vehicle: saline 96 % of control | dose: 400.0 mg/kg/injection, schedule: Q01DX009 (ip), vehicle: saline 101 % of control | dose: 400.0 mg/kg/injection, schedule: Q04DX003 (ip), vehicle: saline 93 % of control

COc1ccc(NC(=O)Nc2cccc(C(=O)O)c2)c(OC)c1
inactive: [9] 101 % of control | [10] 104 % of control | [11] 97 % of control

Nc1nc(CNc2ccccc2)nc(Nc2ccccc2)n1
inactive: [5] 89 % of control | [6] 101 % of control | [8] 89 % of control

CCOC(C(=O)O)(c1ccccc1)c1ccccc1
inactive: [9] 97 % of control | [10] 97 % of control

O=C(Nc1ccc(C(=O)Cl)cc1)OCCCl
inactive: [5] 96 % of control | [6] 96 % of control | [8] 96 % of control

COc1cccc(NC(=S)NC(=O)c2ccccc2)c1
inactive: [9] 110 % of control | [10] 92 % of control | [11] 103 % of control

CC(=O)Nc1ccc(OCCOC(=O)Nc2c(C)cccc2C)cc1
inactive: [1] 87 % of control | [2] 92 % of control | [7] 94 % of control

N#CCc1ccc(Cl)c(Cl)c1
inactive: dose: 5.0 mg/kg/injection, schedule: Q01DX001 (ip), vehicle: saline 100 % of control | dose: 10.0 mg/kg/injection, schedule: Q01DX001 (ip), vehicle: saline 105 % of control | dose: 20.0 mg/kg/injection, schedule: Q01DX001 (ip), vehicle: saline 95 % of control | dose: 40.0 mg/kg/injection, schedule: Q01DX001 (ip), vehicle: saline 95 % of control | dose: 80.0 mg/kg/injection, schedule: Q01DX001 (ip), vehicle: saline 98 % of control

CCCCN=C(C(=O)NCCCC)c1ccccc1NC(C)=O
inactive: dose: 100.0 mg/kg/injection, schedule: Q01DX009 (ip), vehicle: Klucel (hydroxypropylcellulose) (HPC) 97 % of control | dose: 200.0 mg/kg/injection, schedule: Q01DX009 (ip), vehicle: Klucel (hydroxypropylcellulose) (HPC) 86 % of control

CC(=O)Nc1ccc(/C=C/C(=O)c2ccc([N+](=O)[O-])cc2)cc1
inactive: [1] 94 % of control | [5] 91 % of control | [2] 94 % of control | [6] 94 % of control | [7] 94 % of control | [8] 90 % of control

CC(=O)OC1=C(Cl)C(=O)c2ccccc2C1=O
inactive: [12] 89 % of control | [13] 94 % of control

CC1CC([O-])=N/[N+]1=C\c1ccccc1 (stereo unspecified)
inactive: [14] 97 % of control | [1] 96 % of control | [15] 95 % of control | [2] 87 % of control | [16] 97 % of control

COc1ccc(/C=N\NC(=O)CCCC(=O)N/N=C/c2ccc(OC)c(O)c2)cc1O
inactive: dose: 50.0 mg/kg/injection, schedule: Q01DX001 (ip), vehicle: saline 100 % of control | [14] 100 % of control | [15] 100 % of control | [16] 103 % of control

C(CCCCCC1CCC2CCCC2C1)CCCCC1CCC2CCCC2C1 (stereo unspecified)
inactive: [3] 87 % of control | [4] 101 % of control | dose: 400.0 mg/kg/injection, schedule: Q01DX001 (ip), vehicle: saline with Tween-80 87 % of control

CC(=O)Oc1c2c(c(OC(C)=O)c3c1C(=O)c1ccccc1C3=O)CCCC2
inactive: [14] 98 % of control | [15] 92 % of control | [16] 98 % of control

CONC(=O)Nc1cccc2ccccc12
inactive: [12] 100 % of control | dose: 75.0 mg/kg/injection, schedule: Q04DX003 (ip), vehicle: other 97 % of control | [13] 110 % of control | dose: 150.0 mg/kg/injection, schedule: Q04DX003 (ip), vehicle: other 96 % of control | dose: 300.0 mg/kg/injection, schedule: Q01DX001 (ip), vehicle: other 106 % of control | dose: 300.0 mg/kg/injection, schedule: Q04DX003 (ip), vehicle: other 100 % of control

CNC(=O)c1cc(/C=C/c2c[nH]c3ccccc23)c[n+](C)c1
inactive: dose: 100.0 mg/kg/injection, schedule: Q01DX001 (ip), vehicle: other 102 % of control | dose: 200.0 mg/kg/injection, schedule: Q01DX001 (ip), vehicle: other 100 % of control | dose: 400.0 mg/kg/injection, schedule: Q01DX001 (ip), vehicle: other 94 % of control

Cc1cccc(N2CCC3(CC2)C(=O)NC(=O)NC3=O)c1
inactive: [14] 94 % of control | [15] 97 % of control | [16] 100 % of control
